Assay results published in patent publication US20170050957A1, “4-AMINO-6-(HETEROCYCLIC)PICOLINATES AND 6-AMINO-2-(HETEROCYCLIC)PYRIMIDINE-4-CARBOXYLATES AND THEIR USE AS HERBICIDES” (Dow AgroSciences LLC, priority 2013, published 2017).
Where two headings read alike, the source gives them in different places.

Columns and labels:
[1] = tested on: Key Grass and Sedge Weeds as well as Grass Crops; assay: Post-emergent Test II herbicidal activity (Table 16); format: in vivo; settings: post-emergence, 336 h, 14 days after application; for pest or weed control at 35 g/ha: 35 g ai/ha; for pest or weed control at 70 g/ha: 70 g ai/ha; for pest or weed control at 140 g/ha: 140 g ai/ha
Method in brief: (§1)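 Plants grown in greenhouse (~15 h photoperiod, 23-29 °C day, 22-28 °C night) to first or second true leaf stage, then sprayed post-emergence at 187 L/ha with a high rate and 1/2×, 1/4×, 1/8× and 1/16× dilutions. Injury scored visually after 14 d, 0-100% versus untreated plants.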

[2] = tested on: Key Broadleaf Weed and Crop Species; assay: Post-emergent Test II herbicidal activity (Table 15); format: in vivo; settings: post-emergence, 336 h, 14 d; for pest or weed control at 35 g/ha: 35 g ai/ha; for pest or weed control at 70 g/ha: 70 g ai/ha; for pest or weed control at 140 g/ha: 140 g ai/ha
Method in brief: as §1

[3] = Cyperus esculentus, yellow nutsedge (Cyperus esculentus), read-out: Visual Growth Reduction (%) 14 Days After Application CYPES
[4] = Echinochloa crus-galli, barnyardgrass (Echinochloa crus-galli), read-out: Visual Growth Reduction (%) 14 Days After Application ECHCG
[5] = Oryza sativa, rice (Oryza sativa), read-out: Visual Growth Reduction (%) 14 Days After Application ORYSA
[6] = Setaria faberi, giant foxtail (Setaria faberi), read-out: Visual Growth Reduction (%) 14 Days After Application SETFA
[7] = Triticum aestivum, wheat, spring (Triticum aestivum), read-out: Visual Growth Reduction (%) 14 Days After Application TRZAS
[8] = Zea mays, maize, corn (Zea mays), read-out: Visual Growth Reduction (%) 14 Days After Application ZEAMX
[9] = Abutilon theophrasti, velvetleaf (Abutilon theophrasti), read-out: Visual Growth Reduction (%) 14 Days After Application, ABUTH
[10] = Amaranthus retroflexus, redroot pigweed (Amaranthus retroflexus), read-out: Visual Growth Reduction (%) 14 Days After Application, AMARE
[11] = Brassica napus, oilseed rape, canola (Brassica napus), read-out: Visual Growth Reduction (%) 14 Days After Application, BRSNN
[12] = Chenopodium album, lambsquarters (Chenopodium album), read-out: Visual Growth Reduction (%) 14 Days After Application, CHEAL
[13] = Euphorbia heterophylla, wild poinsettia (Euphorbia heterophylla), read-out: Visual Growth Reduction (%) 14 Days After Application, EPHHL
[14] = Helianthus annuus, sunflower (Helianthus annuus), read-out: Visual Growth Reduction (%) 14 Days After Application, HELAN

| Structure (SMILES) | pest or weed control at 35 g/ha [1, 3] [%] | pest or weed control at 70 g/ha [1, 3] [%] | pest or weed control at 140 g/ha [1, 3] [%] | pest or weed control at 35 g/ha [1, 4] [%] | pest or weed control at 70 g/ha [1, 4] [%] | pest or weed control at 140 g/ha [1, 4] [%] | pest or weed control at 35 g/ha [1, 5] [%] | pest or weed control at 70 g/ha [1, 5] [%] | pest or weed control at 140 g/ha [1, 5] [%] | pest or weed control at 35 g/ha [1, 6] [%] | pest or weed control at 70 g/ha [1, 6] [%] | pest or weed control at 140 g/ha [1, 6] [%] | pest or weed control at 35 g/ha [1, 7] [%] | pest or weed control at 70 g/ha [1, 7] [%] | pest or weed control at 140 g/ha [1, 7] [%] | pest or weed control at 35 g/ha [1, 8] [%] | pest or weed control at 70 g/ha [1, 8] [%] | pest or weed control at 140 g/ha [1, 8] [%] | melting point [°C] | pest or weed control at 35 g/ha [2, 9] [%] | other results |
| --- | --- | --- | --- | --- | --- | --- | --- | --- | --- | --- | --- | --- | --- | --- | --- | --- | --- | --- | --- | --- | --- |
| COC(=O)c1nc(-c2ccc3ccsc3c2)c(C)c(N)c1Cl [Compound 3.18] | 0 to 29 | 0 to 29 | 0 to 29 | 0 to 29 | 0 to 29 | 0 to 29 | 0 to 29 | 0 to 29 | 0 to 29 | 0 to 29 | 0 to 29 | 0 to 29 | 0 to 29 | 0 to 29 | 0 to 29 | 0 to 29 | 0 to 29 | 0 to 29 | 143 to 146 | 60 to 74 | pest or weed control at 70 g/ha [2, 9]: 75 to 84%; pest or weed control at 140 g/ha [2, 9]: 75 to 84%; pest or weed control at 35 g/ha [2, 10]: 60 to 74%; pest or weed control at 70 g/ha [2, 10]: 75 to 84%; pest or weed control at 140 g/ha [2, 10]: 95 to 100%; pest or weed control at 35 g/ha [2, 11]: 0 to 29%; pest or weed control at 70 g/ha [2, 11]: 0 to 29%; pest or weed control at 140 g/ha [2, 11]: 0 to 29%; pest or weed control at 35 g/ha [2, 12]: 30 to 44%; pest or weed control at 70 g/ha [2, 12]: 60 to 74%; pest or weed control at 140 g/ha [2, 12]: 60 to 74%; pest or weed control at 35 g/ha [2, 13]: 45 to 59%; pest or weed control at 70 g/ha [2, 13]: 0 to 29%; pest or weed control at 140 g/ha [2, 13]: 30 to 44%; pest or weed control at 35 g/ha [2, 14]: 95 to 100%; pest or weed control at 70 g/ha [2, 14]: 95 to 100%; pest or weed control at 140 g/ha [2, 14]: 95 to 100% |
| Cc1c(-c2ccc3ccsc3c2)nc(C(=O)O)c(Cl)c1N [Compound 3.19] | 0 to 29 | 0 to 29 | 0 to 29 | 0 to 29 | 0 to 29 | 0 to 29 | 0 to 29 | 0 to 29 | 0 to 29 | 0 to 29 | 0 to 29 | 0 to 29 | 0 to 29 | 0 to 29 | 0 to 29 | 0 to 29 | 0 to 29 | 0 to 29 | 157 to 162 | 0 to 29 | pest or weed control at 70 g/ha [2, 9]: 0 to 29%; pest or weed control at 140 g/ha [2, 9]: 60 to 74%; pest or weed control at 35 g/ha [2, 10]: 60 to 74%; pest or weed control at 70 g/ha [2, 10]: 95 to 100%; pest or weed control at 140 g/ha [2, 10]: 75 to 84%; pest or weed control at 35 g/ha [2, 11]: 0 to 29%; pest or weed control at 70 g/ha [2, 11]: 0 to 29%; pest or weed control at 140 g/ha [2, 11]: 0 to 29%; pest or weed control at 35 g/ha [2, 12]: 60 to 74%; pest or weed control at 70 g/ha [2, 12]: 60 to 74%; pest or weed control at 140 g/ha [2, 12]: 75 to 84%; pest or weed control at 35 g/ha [2, 13]: 0 to 29%; pest or weed control at 70 g/ha [2, 13]: 0 to 29%; pest or weed control at 140 g/ha [2, 13]: 0 to 29%; pest or weed control at 35 g/ha [2, 14]: 85 to 94%; pest or weed control at 70 g/ha [2, 14]: 85 to 94%; pest or weed control at 140 g/ha [2, 14]: 85 to 94% |
| COC(=O)c1nc(-c2ccc3ccsc3c2)nc(N)c1OC [Compound 3.20] | 30 to 44 | 30 to 44 | 85 to 94 | 0 to 29 | 45 to 59 | 60 to 74 | 0 to 29 | 0 to 29 | 0 to 29 | 0 to 29 | 0 to 29 | 60 to 74 | 0 to 29 | 0 to 29 | 30 to 44 | 0 to 29 | 75 to 84 | 85 to 94 | 143 to 145 | 0 to 29 | pest or weed control at 70 g/ha [2, 9]: 0 to 29%; pest or weed control at 140 g/ha [2, 9]: 0 to 29%; pest or weed control at 35 g/ha [2, 10]: 0 to 29%; pest or weed control at 70 g/ha [2, 10]: 60 to 74%; pest or weed control at 140 g/ha [2, 10]: 60 to 74%; pest or weed control at 35 g/ha [2, 11]: 30 to 44%; pest or weed control at 70 g/ha [2, 11]: 60 to 74%; pest or weed control at 140 g/ha [2, 11]: 60 to 74%; pest or weed control at 35 g/ha [2, 12]: 85 to 94%; pest or weed control at 70 g/ha [2, 12]: 95 to 100%; pest or weed control at 140 g/ha [2, 12]: 95 to 100%; pest or weed control at 35 g/ha [2, 13]: 75 to 84%; pest or weed control at 70 g/ha [2, 13]: 95 to 100%; pest or weed control at 140 g/ha [2, 13]: 95 to 100%; pest or weed control at 35 g/ha [2, 14]: 75 to 84%; pest or weed control at 70 g/ha [2, 14]: 85 to 94%; pest or weed control at 140 g/ha [2, 14]: 85 to 94% |
